pEC50, pIC50: −log10 of the molar value.

In one experiment the target is NS3/NS4 complexes (Hepatitis C virus genotype 1a, UniProt P27958). Put plainly: NS3/NS4 inhibition assay (IC50). The experiment is classed as biochemical. As to conditions: NS3/NS4 activity; 23° C., 25 μM NS4A peptide. In short, it runs like this: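 First, NS3 and NS4 are complexed; test compounds are then titrated against the complex at room temperature (23° C.) in Tris-HCl buffer, pH 7.5, supplemented with glycerol (15%), LDAO (0.6 mM), DTT (10 mM) and NS4A peptide (25 μM) to give IC50. Separately, replicon cells give EC50.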

The subject of a further experiment is hepatitis C replicon. Put plainly: hepatitis C replicon EC50 assay. As to conditions: Hepatitis C virus; hepatitis C replicon; read-out: EC50. The format is cell-based. A digest of the protocol: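 Inhibitory concentrations against the NS3/NS4 complex are determined at 23° C. in pH 7.5 buffer (50 mM Tris-HCl) containing 25 μM NS4A peptide, 0.6 mM lauryldimethylamine oxide, 10 mM dithiothreitol and 15% glycerol. EC50 values derive from the hepatitis C replicon assay.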

Sequence of NS3/NS4 complexes (P27958 1027-1657, one chain of several): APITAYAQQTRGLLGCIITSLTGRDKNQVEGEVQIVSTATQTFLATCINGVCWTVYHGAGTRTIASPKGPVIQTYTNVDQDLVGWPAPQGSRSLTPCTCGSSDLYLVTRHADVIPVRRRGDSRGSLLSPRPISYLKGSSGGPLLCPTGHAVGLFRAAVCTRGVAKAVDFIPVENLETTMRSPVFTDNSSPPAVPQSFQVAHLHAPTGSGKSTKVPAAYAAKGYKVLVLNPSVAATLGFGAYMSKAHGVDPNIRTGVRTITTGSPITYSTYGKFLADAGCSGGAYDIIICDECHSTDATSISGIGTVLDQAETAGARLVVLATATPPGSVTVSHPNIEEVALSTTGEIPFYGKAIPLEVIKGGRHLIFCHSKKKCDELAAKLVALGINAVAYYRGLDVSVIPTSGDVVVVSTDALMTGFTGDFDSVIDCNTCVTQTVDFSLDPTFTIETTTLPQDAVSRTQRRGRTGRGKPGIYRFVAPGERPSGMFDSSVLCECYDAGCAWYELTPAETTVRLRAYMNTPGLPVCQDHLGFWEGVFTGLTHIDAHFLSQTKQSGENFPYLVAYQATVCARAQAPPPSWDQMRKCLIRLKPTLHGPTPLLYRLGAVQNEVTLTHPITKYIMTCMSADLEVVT

For orientation: pIC50 means the IC50 on a negative log10 scale, so that one unit is a factor of ten. Read a low pIC50 as a large IC50. Broadly, the pEC50 is the EC50 on a negative log10 scale, so that one unit is a factor of ten. In turn, `CC(C)n1c(O[C@@H]2C[C@H]3C(=O)N[C@]4(C(=O)NS(=O)(=O)C5(C)CC5)C[C@H]4/C=C\CCCCC[C@H](NC(=O)OC(C)(C)C)C(=O)N3C2)nc2c(-c3nc(-c4ccccc4)cs3)cccc21` [Compound 1708] had a negative logarithm of the IC50 (pIC50) against NS3/NS4 complexes greater than 8.00. In the experiment on hepatitis C replicon, the pEC50 is greater than 8.00.
As for `Cc1ccc(-c2csc(-c3cccc4c3nc(O[C@@H]3C[C@H]5C(=O)N[C@]6(C(=O)NS(=O)(=O)C7(C)CC7)C[C@H]6/C=C\CCCCC[C@H](NC(=O)OC(C)(C)C)C(=O)N5C3)n4C(C)C)n2)cc1` [Compound 1709], the negative logarithm of the IC50 (pIC50) against NS3/NS4 complexes is greater than 8.00. For the same compound, the pEC50 in the experiment on hepatitis C replicon is 7.00 to 8.00.
For `CC(C)n1c(O[C@@H]2C[C@H]3C(=O)N[C@]4(C(=O)NS(=O)(=O)C5(C)CC5)C[C@H]4/C=C\CCCCC[C@H](NC(=O)OC(C)(C)C)C(=O)N3C2)nc2c(-c3nc(-c4ccccc4F)cs3)cccc21` [Compound 1710], in that order: greater than 8.00 and 7.00 to 8.00.
The matching figures for `CC(C)n1c(O[C@@H]2C[C@H]3C(=O)N[C@]4(C(=O)NS(=O)(=O)C5(C)CC5)C[C@H]4/C=C\CCCCC[C@H](NC(=O)OC(C)(C)C)C(=O)N3C2)nc2c(-c3nc(-c4ccc(F)cc4)cs3)cccc21` [Compound 1711]: greater than 8.00 and greater than 8.00.
For `Cc1ccccc1-c1csc(-c2cccc3c2nc(O[C@@H]2C[C@H]4C(=O)N[C@]5(C(=O)NS(=O)(=O)C6(C)CC6)C[C@H]5/C=C\CCCCC[C@H](NC(=O)OC(C)(C)C)C(=O)N4C2)n3C(C)C)n1` [Compound 1712], in that order: greater than 8.00 and greater than 8.00.
For the compound `Cc1cccc(-c2csc(-c3cccc4c3nc(O[C@@H]3C[C@H]5C(=O)N[C@]6(C(=O)NS(=O)(=O)C7(C)CC7)C[C@H]6/C=C\CCCCC[C@H](NC(=O)OC(C)(C)C)C(=O)N5C3)n4C(C)C)n2)c1` [Compound 1713], the negative logarithm of the IC50 (pIC50) at NS3/NS4 complexes is greater than 8.00. In addition, in the experiment with hepatitis C replicon, the pEC50 was 7.00 to 8.00.
The matching figures for `CC(C)n1c(O[C@@H]2C[C@H]3C(=O)N[C@]4(C(=O)NS(=O)(=O)C5(C)CC5)C[C@H]4/C=C\CCCCC[C@H](NC(=O)OC(C)(C)C)C(=O)N3C2)nc2c(-c3nc(-c4ccccc4Cl)cs3)cccc21` [Compound 1714]: greater than 8.00 and 7.00 to 8.00.
In turn, `COc1ccc(-c2csc(-c3cccc4c3nc(O[C@@H]3C[C@H]5C(=O)N[C@]6(C(=O)NS(=O)(=O)C7(C)CC7)C[C@H]6/C=C\CCCCC[C@H](NC(=O)OC(C)(C)C)C(=O)N5C3)n4C(C)C)n2)cc1` [Compound 1715] gave a pIC50 at NS3/NS4 complexes greater than 8.00. Besides, the pEC50 in the experiment on hepatitis C replicon was 7.00 to 8.00.
For `CC(C)n1c(O[C@@H]2C[C@H]3C(=O)N[C@]4(C(=O)NS(=O)(=O)C5(C)CC5)C[C@H]4/C=C\CCCCC[C@H](NC(=O)OC(C)(C)C)C(=O)N3C2)nc2c(-c3nc(-c4ccc(-c5ccccc5)cc4)cs3)cccc21` [Compound 1716], in that order: greater than 8.00 and 7.00 to 8.00.
The matching figures for `Cc1ccc(-c2csc(-c3cccc4c3nc(O[C@@H]3C[C@H]5C(=O)N[C@]6(C(=O)NS(=O)(=O)C7(C)CC7)C[C@H]6/C=C\CCCCC[C@H](NC(=O)OC(C)(C)C)C(=O)N5C3)n4C(C)C)n2)c(C)c1` [Compound 1717]: greater than 8.00 and 7.00 to 8.00.
For `Cc1cccc(Cc2csc(-c3cccc4c3nc(O[C@@H]3C[C@H]5C(=O)N[C@]6(C(=O)NS(=O)(=O)C7(C)CC7)C[C@H]6/C=C\CCCCC[C@H](NC(=O)OC(C)(C)C)C(=O)N5C3)n4C(C)C)n2)c1` [Compound 1718], in that order: greater than 8.00 and greater than 8.00.
`Cc1ccc(Cc2csc(-c3cccc4c3nc(O[C@@H]3C[C@H]5C(=O)N[C@]6(C(=O)NS(=O)(=O)C7(C)CC7)C[C@H]6/C=C\CCCCC[C@H](NC(=O)OC(C)(C)C)C(=O)N5C3)n4C(C)C)n2)cc1` [Compound 1719] showed a pIC50 against NS3/NS4 complexes greater than 8.00. In addition, in the experiment on hepatitis C replicon, the negative-log EC50 (pEC50) was greater than 8.00.
`CC(C)n1c(O[C@@H]2C[C@H]3C(=O)N[C@]4(C(=O)NS(=O)(=O)C5(C)CC5)C[C@H]4/C=C\CCCCC[C@H](NC(=O)OC(C)(C)C)C(=O)N3C2)nc2c(-c3nc(Cc4ccccc4F)cs3)cccc21` [Compound 1720] showed a pIC50 against NS3/NS4 complexes greater than 8.00. Moreover, the negative logarithm of the EC50 (pEC50) in the experiment on hepatitis C replicon was greater than 8.00.
The compound `CC(C)n1c(O[C@@H]2C[C@H]3C(=O)N[C@]4(C(=O)NS(=O)(=O)C5(C)CC5)C[C@H]4/C=C\CCCCC[C@H](NC(=O)OC(C)(C)C)C(=O)N3C2)nc2c(-c3nc(Cc4ccc(F)c(F)c4)cs3)cccc21` [Compound 1721] gave a negative logarithm of the IC50 (pIC50) against NS3/NS4 complexes greater than 8.00. Besides, the negative-log EC50 (pEC50) with hepatitis C replicon was greater than 8.00.
In the case of `CC(C)n1c(O[C@@H]2C[C@H]3C(=O)N[C@]4(C(=O)NS(=O)(=O)C5(C)CC5)C[C@H]4/C=C\CCCCC[C@H](NC(=O)OC(C)(C)C)C(=O)N3C2)nc2c(-c3nc(Cc4cc(F)cc(F)c4)cs3)cccc21` [Compound 1722], the pIC50 at NS3/NS4 complexes was greater than 8.00. In the experiment on hepatitis C replicon, the negative logarithm of the EC50 (pEC50) is 7.00 to 8.00.
The matching figures for `COc1ccc(Cc2csc(-c3cccc4c3nc(O[C@@H]3C[C@H]5C(=O)N[C@]6(C(=O)NS(=O)(=O)C7(C)CC7)C[C@H]6/C=C\CCCCC[C@H](NC(=O)OC(C)(C)C)C(=O)N5C3)n4C(C)C)n2)cc1OC` [Compound 1723]: greater than 8.00 and greater than 8.00.
For `CC(C)n1c(O[C@@H]2C[C@H]3C(=O)N[C@]4(C(=O)NS(=O)(=O)C5(C)CC5)C[C@H]4/C=C\CCCCC[C@H](NC(=O)OC(C)(C)C)C(=O)N3C2)nc2c(-c3nc(Cc4cccc(Cl)c4)cs3)cccc21` [Compound 1724], in that order: greater than 8.00 and 7.00 to 8.00.
For `CC(C)n1c(O[C@@H]2C[C@H]3C(=O)N[C@]4(C(=O)NS(=O)(=O)C5(C)CC5)C[C@H]4/C=C\CCCCC[C@H](NC(=O)OC(C)(C)C)C(=O)N3C2)nc2c(-c3nc(Cc4cccc(F)c4)cs3)cccc21` [Compound 1725], in that order: greater than 8.00 and greater than 8.00.
Consider `CC(C)n1c(O[C@@H]2C[C@H]3C(=O)N[C@]4(C(=O)NS(=O)(=O)C5(C)CC5)C[C@H]4/C=C\CCCCC[C@H](NC(=O)OC(C)(C)C)C(=O)N3C2)nc2c(-c3nc(Cc4ccc(F)cc4)cs3)cccc21` [Compound 1726], for which the pIC50 against NS3/NS4 complexes is greater than 8.00. Further, the pEC50 with hepatitis C replicon is greater than 8.00.
Consider `CC(C)n1c(O[C@@H]2C[C@H]3C(=O)N[C@]4(C(=O)NS(=O)(=O)C5(C)CC5)C[C@H]4/C=C\CCCCC[C@H](NC(=O)OC(C)(C)C)C(=O)N3C2)nc2c(-c3nc(Cc4ccccc4Cl)cs3)cccc21` [Compound 1727], for which the pIC50 against NS3/NS4 complexes is greater than 8.00. Moreover, the negative-log EC50 (pEC50) in the experiment on hepatitis C replicon was greater than 8.00.
For `CC(C)n1c(O[C@@H]2C[C@H]3C(=O)N[C@]4(C(=O)NS(=O)(=O)C5(C)CC5)C[C@H]4/C=C\CCCCC[C@H](Nc4ccc(F)cc4)C(=O)N3C2)nc2c(-c3nc(C4CCCC4)cs3)cccc21` [Compound 1728], the pIC50 on NS3/NS4 complexes is greater than 8.00. The pEC50 with hepatitis C replicon was less than 7.00.
The matching figures for `CC(C)n1c(O[C@@H]2C[C@H]3C(=O)N[C@]4(C(=O)NS(=O)(=O)C5(C)CC5)C[C@H]4/C=C\CCCCC[C@H](Nc4cccc(F)c4)C(=O)N3C2)nc2c(-c3nc(C4CCCC4)cs3)cccc21` [Compound 1729]: greater than 8.00 and 7.00 to 8.00.
Compound `CC(C)n1c(O[C@@H]2C[C@H]3C(=O)N[C@]4(C(=O)NS(=O)(=O)C5(C)CC5)C[C@H]4/C=C\CCCCC[C@H](NC(=O)OC4CCCC4)C(=O)N3C2)nc2c(-c3nc(-c4ccccc4)cs3)cccc21` [Compound 1730] showed a pIC50 against NS3/NS4 complexes greater than 8.00. Further, the negative-log EC50 (pEC50) in the experiment on hepatitis C replicon is greater than 8.00.
`CC(C)n1c(O[C@@H]2C[C@H]3C(=O)N[C@]4(C(=O)NS(=O)(=O)C5(C)CC5)C[C@H]4/C=C\CCCCC[C@H](NC(=O)O[C@@H]4C[C@@H]5C[C@@H]5C4)C(=O)N3C2)nc2c(-c3nc(-c4ccccc4)cs3)cccc21` [Compound 1731]: the negative logarithm of the IC50 (pIC50) at NS3/NS4 complexes is greater than 8.00. In addition, in the experiment with hepatitis C replicon, the pEC50 was greater than 8.00.
In turn, `CC(C)n1c(O[C@@H]2C[C@H]3C(=O)N[C@]4(C(=O)NS(=O)(=O)C5(C)CC5)C[C@H]4/C=C\CCCCC[C@H](NC(=O)N4CCCC4)C(=O)N3C2)nc2c(-c3nc(-c4ccccc4)cs3)cccc21` [Compound 1732] showed a negative-log IC50 (pIC50) at NS3/NS4 complexes greater than 8.00. Moreover, the pEC50 in the experiment on hepatitis C replicon is greater than 8.00.
At NS3/NS4 complexes, `COc1ccc2c(O[C@@H]3C[C@H]4C(=O)N[C@]5(C(=O)NS(=O)(=O)C6(C)CC6)C[C@H]5/C=C\CCCCC[C@H](NC(=O)N5CCCC5)C(=O)N4C3)cc(-c3nc(C(C)C)cs3)nc2c1C` [Compound 1733] showed a negative-log IC50 (pIC50) greater than 8.00. In addition, the pEC50 in the experiment on hepatitis C replicon was greater than 8.00.
`CC(C)n1c(O[C@@H]2C[C@H]3C(=O)N[C@]4(C(=O)NS(=O)(=O)N(C)C)C[C@H]4/C=C\CCCCC[C@H](NC(=O)OC(C)(C)C)C(=O)N3C2)nc2c(-c3nc(-c4ccccn4)cs3)cccc21` [Compound 1735] gave a pIC50 at NS3/NS4 complexes greater than 8.00. The negative logarithm of the EC50 (pEC50) in the experiment with hepatitis C replicon was greater than 8.00.
On to `CC(C)n1c(O[C@@H]2C[C@H]3C(=O)N[C@]4(C(=O)NS(=O)(=O)N(C)C)C[C@H]4/C=C\CCCCC[C@H](NC(=O)OC(C)(C)C)C(=O)N3C2)nc2c(-c3nc(-c4cccnc4)cs3)cccc21` [Compound 1736], for which the negative-log IC50 (pIC50) at NS3/NS4 complexes was greater than 8.00. Further, in the experiment with hepatitis C replicon, the pEC50 is greater than 8.00.
As for `CC(C)n1c(O[C@@H]2C[C@H]3C(=O)N[C@]4(C(=O)NS(=O)(=O)N(C)C)C[C@H]4/C=C\CCCCC[C@H](NC(=O)OC(C)(C)C)C(=O)N3C2)nc2c(-c3nc(-c4ccncc4)cs3)cccc21` [Compound 1737], the negative-log IC50 (pIC50) at NS3/NS4 complexes is greater than 8.00. Besides, the negative logarithm of the EC50 (pEC50) in the experiment on hepatitis C replicon is greater than 8.00.
On NS3/NS4 complexes, `COc1ccc(-c2cccc3c2nc(O[C@@H]2C[C@H]4C(=O)N[C@]5(C(=O)NS(=O)(=O)N(C)C)C[C@H]5/C=C\CCCCC[C@H](NC(=O)OC(C)(C)C)C(=O)N4C2)n3C(C)C)cn1` [Compound 1739] had a negative-log IC50 (pIC50) greater than 8.00. In the experiment on hepatitis C replicon, the negative logarithm of the EC50 (pEC50) is 7.00 to 8.00.
For `CC(C)n1c(O[C@@H]2C[C@H]3C(=O)N[C@]4(C(=O)NS(=O)(=O)N(C)C)C[C@H]4/C=C\CCCCC[C@H](NC(=O)OC(C)(C)C)C(=O)N3C2)nc2c(-c3csc(-c4ccccc4)n3)cccc21` [Compound 1740], in that order: greater than 8.00 and 7.00 to 8.00.

The record behind these values is patent US20110081315A1, “NOVEL MACROCYCLIC INHIBITORS OF HEPATITIS C VIRUS REPLICATION” (INTERMUNE, INC., priority 2009, published 2011).
